Experimental data published in patent US10980787B2, “Drug for treating or preventing disorder caused by TGF-B signals, and application thereof” (THE DOSHISHA, priority 2015, dated 2021).

Experiments:
[1] = system: immobilized human corneal endothelial cells (iFECD); assay: Mitochondrial membrane potential, JC-1 stain, confocal microscope; format: cell-based; details: CCCP 50 μmol/L, 9 hours, uncoupling agent
Method: (§1) The medium was removed from a culture dish in which immobilized human corneal endothelial cells were being cultured, and the cells were supplemented with 1×PBS (−) that was preheated to 37° C., and were washed. This was repeated twice. The cells were supplemented again with 1×PBS (−) and incubated for 5 minutes at 37° C. (5% CO2). After removing the PBS (−), the cells were supplemented with 0.05% Trypsin-EDTA (Nacalai Tesque, 35554-64) and incubated for 5 minutes at 37° C. (5% CO2). The cells were then suspended in a medium, and collected by centrifugation at 1500 rpm for 3 minutes. DMEM (Nacalai Tesque, 08456-94)+10% FBS (Biowest, S1820-500)+1% P/S (Nacalai Tesque, 26252-94) was used as the medium.
Immobilized human corneal endothelial cells (lot: iFECD3-5) were seeded on a 48-well plate at a ratio of 4×10^4 cells per well and cultured for 48 hours at 37° C. (5% CO2). DMEM+10% FBS+1% P/S was used as the medium.
After 48 hours, the medium was removed. Each inhibitor was added to culture the cells for 24 hours (pretreatment). DMSO (Dimethyl Sulfoxide Sterile-filtered) (Nacalai Tesque, 13408-64) was added to the control group and the TGF-β2 group. The CCCP group was supplemented with CCCP (abcam, ab141229), so that the final concentration was 50 μmol/L, and cultured for 9 hours. […]
Mitochondrial membrane potential was analyzed by the following procedure with a JC-1 stain. […]

smad2 and smad3 = assay: Western blot of phospho-smad2 and smad3 after TGF-β2 stimulation; format: cell-based, human; details: iFECD, TGF-β2 10 ng/ml 24 hours; SB431542 10 μM, SB203580 10 μM, PH-797804 1 μM, VX-702 3 μM
Text: The same procedure as Example 4 was used. However, rabbit anti-Phospho-Smad2 antibody: 1000-fold dilution, rabbit anti-Phospho-Smad3 antibody: 1000-fold dilution, and mouse anti-GAPDH antibody: 3000-fold dilution were used as the primary antibodies.

[2] = system: immobilized human corneal endothelial cells (iFECD); assay: Cell damage by TGF-β2 stimulation, phase differential microscope; format: cell-based; details: 24 h pretreatment, TGF-β2 10 ng/ml 27 hours, SB203580 10 μM, PH-797804 1 μM, VX-702 3 μM, SB431542 10 μM
Method: as §1, with “P/S (penicillin-streptomycin mixture)” for “P/S”
(§2) Immobilized human corneal endothelial cells (lot: iFECD3-5) were seeded on a 12-well plate at a ratio of 8×10^4 cells per well and cultured for 48 hours at 37° C. (5% CO2). DMEM+10% FBS+1% P/S was used as the medium.
After 48 hours, the medium was removed. Each inhibitor was added to culture the cells for 24 hours. DMSO (Dimethyl Sulfoxide Sterile-filtered) (Nacalai Tesque, 13408-64) was added to the control group and the TGF-52 group. DMEM+2% FBS+1% P/S was used as the medium.
After 24 hours, the medium was removed. A medium containing 10 ng/ml of Recombinant Human TGF-β2 (R&D systems, RND302-B2-002) and each inhibitor was added to culture the cells for 27 hours. […]

[3] = system: immobilized human corneal endothelial cells (iFECD); assay: Mitochondrial membrane potential decreased cells, JC-1 flow cytometry; format: cell-based; details: TGF-β2 10 ng/ml 30 hours, SB203580 10 μM, PH-797804 1 μM, VX-702 3 μM, compared to the TGF-β2 group or SB431542 10 μM group
Method: as §1, with “C. (5% C02). After removing” for “C. (5% CO2). After removing”
as §2
After 48 hours, the medium was removed. Each inhibitor was added to culture the cells for 24 hours (pretreatment). DMSO (Dimethyl Sulfoxide Sterile-filtered) (Nacalai Tesque, 13408-64) was added to the control group and the TGF-β2 group. DMEM+2% FBS+1% P/S was used as the medium. […]
The samples prepared above were analyzed using BD Accuri C6 Flow Cytometer (BD).

[4] = system: Human corneal endothelial cells; assay: Cryopreservation of corneal endothelial cells, trypan blue dye exclusion test; format: cell-based; details: SB203580 10 μM in KM BANKER, 3 days at −80° C.
Method: Human corneal endothelial cells cultured in an MSC-CM (MSC cultured medium) were used in the test. The medium was removed from a culture dish in which human corneal endothelial cells were being cultured, and the cells were supplemented with PBS (−) that was preheated to 37° C., and were washed. This was repeated twice. After removing the PBS (−), the cells were supplemented with TrypLE Select (×10) (GIBCO, A12177-01) and incubated for 10 minutes at 37° C. (5% CO2). SB203580 was added to KM BANKER, so that the final concentration was 10 μM. The control group was cryopreserved by supplementing a reagent solvent, dimethyl sulfoxide (DMSO) (Dimethyl Sulfoxide Sterile-filtered; Nacalai Tesque, 13408-64). After 3 days of storage at −80° C., the tube was thawed by being immersed in a 37° C. water bath. After thawing, the sample was washed in a medium. Live and dead cell counts were measured by trypan blue dye exclusion test.

[5] = system: Human corneal endothelial cells; assay: Cell count 24 hours after thawing cryopreserved cells, CellTiter-Glo; format: cell-based; details: SB203580 10 μM, 24 hours after seeding thawed cells
Method: After thawing the cryopreserved cells by adding only DMSO, 10000 cells were seeded in a 96-well plate that was coated with laminin E8. SB203580 (Cayman, catalog number: 13067) was added so that the final concentration was 10 μM upon seeding. DMSO was added to the group to which SB203580 was not added. After 24 hours from seeding, CellTiter-Glo Luminescent Cell Viability Assay (Promega catalog number: G7570) was performed to measure luminescence.

[6] = cited from earlier work

## N#CC(C#N)=NNc1cccc(Cl)c1 [CCCP]
[1]
  mitochondrial membrane potential (JC-1 red fluorescence): not observed

## NC(=O)c1ccc(-c2nc(-c3ccc4c(c3)OCO4)c(-c3ccccn3)[nH]2)cc1 [SB431542]
smad2 and smad3
  smad2 and smad3 (downstream of TGF-β signaling pathway) in western blot: not found
[2]
  damage to corneal endothelial cells due to TGF-β2 stimulation: suppressed

## CNC(=O)c1ccc(C)c(-n2c(C)cc(OCc3ccc(F)cc3F)c(Br)c2=O)c1 [PH-797804, 3-[3-bromo-4-[(2,4-difluorophenyl)methoxy]-6-methyl-2-oxopyridin-1-yl]-N,4-dimethylbenzamide]
[3]
  percentage of mitochondrial membrane potential decreased cells: comparable to or lower than the SB431542 added group

## C[S+]([O-])c1ccc(-c2nc(-c3ccncc3)c(-c3ccc(F)cc3)[nH]2)cc1 (stereo not drawn) [SB203580, 4-(4-fluorophenyl)-2-(4-methylsulfinylphenyl)-5-(4-pyridyl)-1H-imidazole]
[3]
  percentage of mitochondrial membrane potential decreased cells: comparable to or lower than the SB431542 added group
[4]
  cell viability immediately after thawing compared to DMSO: slightly higher
[5]
  cell count compared to the DMSO-added group: about 1.3 fold
[6]; methanol
  solubility into methanol: soluble
[6]; water
  solubility into water: difficult to dissolve
